Laboratory results published in PMC7397269, “Synthesis and Evaluation of New Coumarin Derivatives as Antioxidant, Antimicrobial, and Anti-Inflammatory Agents” (Molecules, 2020).
Values after ≈ are worked out from the molar mass of the structure shown. Values joined by “and” are separate entries in the source; they are usually repeats but may differ in a detail not shown here. Equal entries are not always repeated.

Columns and labels:
[1] = test system: Candida albicans NRRL Y-477; assay: MIC, two-fold serial dilution, C. albicans; assay type: cell-based; details: NRRLY477, read-out: Minimum inhibitory concentration, CA
In short: (§1)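 Compounds with agar-well inhibition zones >16 mm were retested by two-fold broth dilution at final concentrations of 1000, 500, 250 and 125 μg/mL. Inocula of 1 × 10^8 CFU/mL (bacteria) or 1 × 10^6 CFU/mL (yeast), 0.1 mL per 5 mL. MIC = lowest concentration without growth after 24 h at 37 °C.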

[2] = test system: Saccharomyces cerevisiae local isolate; assay: MIC, two-fold serial dilution, S. cerevisiae; assay type: cell-based; details: two-fold serial dilution, S. cerevisiae, read-out: Minimum inhibitory concentration, SC
In short: as §1

[3] = test system: Escherichia coli ATCC 2592; assay: MIC, two-fold serial dilution, E. coli; assay type: cell-based; details: ATCC2592, read-out: Minimum inhibitory concentration, EC
In short: as §1

[4] = DPPH antioxidant assay (radical scavenging); assay type: biochemical; details: mean ± SD (n = 3)
In short: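 Compounds, starting at 200 μg/mL, were mixed with 0.2 mM methanolic DPPH and incubated 30 min in the dark at 25 °C; absorbance was read at 515 nm. % inhibition is background-corrected against DPPH-only control, with IC50 from curve fit. Runs were triplicate (mean ± SD), with ascorbic acid as positive control.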

[5] = test system: Candida albicans NRRL Y-477; assay: Agar well diffusion, C. albicans; assay type: cell-based; details: NRRLY477, 100 μL of 10 mg/mL in DMSO, read-out: diameter of inhibition zone, CA
In short: (§2)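 Values are mean inhibition zone diameters (mm) from triplicate plates incubated 24 h at 37 °C. Wells 10 mm wide held 100 μL of compound at 10 mg/mL in DMSO.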

[6] = test system: Bacillus megaterium ATCC 9885; assay: MIC, two-fold serial dilution, B. megaterium; assay type: cell-based; details: Priestia megaterium, ATCC9885, read-out: Minimum inhibitory concentration, BM
In short: as §1

COX-2 = target: T1, COX-2 (Homo sapiens, UniProt P35354); assay: COX-2 inhibition, Cayman assay kit; assay type: biochemical
T1 construct: purchased Cayman Chemical 701080
T1 sequence (P35354 18-604): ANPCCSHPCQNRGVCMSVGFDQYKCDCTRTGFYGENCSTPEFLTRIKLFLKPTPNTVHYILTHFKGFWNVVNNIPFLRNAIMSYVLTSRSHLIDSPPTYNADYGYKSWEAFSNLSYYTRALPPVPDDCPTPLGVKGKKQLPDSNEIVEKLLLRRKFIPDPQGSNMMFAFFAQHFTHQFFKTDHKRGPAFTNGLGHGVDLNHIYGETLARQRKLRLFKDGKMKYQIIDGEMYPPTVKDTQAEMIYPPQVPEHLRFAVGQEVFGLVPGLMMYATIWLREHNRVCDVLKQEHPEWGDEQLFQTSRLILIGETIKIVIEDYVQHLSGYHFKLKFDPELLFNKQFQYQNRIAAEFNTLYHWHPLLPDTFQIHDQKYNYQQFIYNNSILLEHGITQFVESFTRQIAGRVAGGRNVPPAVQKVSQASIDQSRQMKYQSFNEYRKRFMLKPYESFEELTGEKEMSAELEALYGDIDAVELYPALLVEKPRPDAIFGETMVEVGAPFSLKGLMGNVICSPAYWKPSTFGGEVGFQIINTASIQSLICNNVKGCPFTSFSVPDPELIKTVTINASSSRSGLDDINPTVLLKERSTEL

[7] = test system: Pseudomonas aeruginosa ATCC 27,953; assay: MIC, two-fold serial dilution, P. aeruginosa; assay type: cell-based; details: ATCC27, read-out: Minimum inhibitory concentration, PA
In short: as §1

[8] = test system: Pseudomonas aeruginosa ATCC 27,953; assay: Agar well diffusion, P. aeruginosa; assay type: cell-based; details: ATCC27, 100 μL of 10 mg/mL in DMSO, read-out: diameter of inhibition zone, PA
In short: as §2

[9] = test system: Bacillus subtilis ATCC 6633; assay: Agar well diffusion, B. subtilis; assay type: cell-based; details: ATCC6633, 100 μL of 10 mg/mL in DMSO, read-out: diameter of inhibition zone, BS
In short: as §2

[10] = test system: Bacillus subtilis ATCC 6633; assay: MIC, two-fold serial dilution, B. subtilis; assay type: cell-based; details: ATCC6633, read-out: Minimum inhibitory concentration, BS
In short: as §1

Cc1ccc2oc(=O)c(S(=O)(=O)Nc3ccc(O)cc3)c(O)c2c1 [8d, 4-Hydroxy-N-(4-hydroxyphenyl)-6-methyl-2-oxo-2H-chromene-3-sulfonamide] showed an MIC [1] of 125 µg/mL (≈ 360 µM), an MIC [2] of 125 µg/mL (≈ 360 µM) and an MIC [3] of 125 µg/mL (≈ 360 µM). It also gave an IC50 [4] of 4.30 ± 0.531 µg/mL (≈ 12.4 µM), a zone of inhibition at 10000 µg/mL [5] of 30 mm and an MIC [6] of 250 µg/mL (≈ 720 µM). For the same compound, the IC50 (COX-2; mean of two determinations) was 1860 nM, the “SI, selectivity index (COX-1/COX-2)” value (COX-2; ratio of COX-1/COX-2 IC50) was 10.5 and 10.45 and the MIC [7] was 125 µg/mL (≈ 360 µM). It also gave a zone of inhibition at 10000 µg/mL [8] of 31 mm, a zone of inhibition at 10000 µg/mL [9] of 29 mm and an MIC [10] of 125 µg/mL (≈ 360 µM).
